Laboratory results as given in article PMC3725505 (Scientific Reports, 2013).

Biological target: Kelch domain of human Keap1 (residues 321–609) (Homo sapiens, UniProt Q14145)
Assay: Isothermal titration calorimetry
Assay type: binding
Conditions: ITC, pH 7; for TΔS (entropy term upon binding) / ΔG (change in Gibbs free energy upon binding) / ΔH (change in enthalpy upon binding): T = 298.15 K, 50 mM sodium phosphate, 100 mM NaCl, 1 mM DTT, Table 1 set; for Kd: Kd to Kelch, 25°C

Chain of Kelch domain of human Keap1 (residues 321–609) (Q14145 321-609): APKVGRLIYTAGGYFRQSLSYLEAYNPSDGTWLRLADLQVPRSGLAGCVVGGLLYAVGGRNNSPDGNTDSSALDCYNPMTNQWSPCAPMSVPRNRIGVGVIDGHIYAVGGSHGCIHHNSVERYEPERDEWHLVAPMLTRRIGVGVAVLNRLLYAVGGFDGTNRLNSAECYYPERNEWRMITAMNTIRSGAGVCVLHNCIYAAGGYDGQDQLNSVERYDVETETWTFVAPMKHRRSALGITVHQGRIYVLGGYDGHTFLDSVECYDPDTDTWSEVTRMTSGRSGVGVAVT

Row | TΔS (entropy term upon binding) [kcal/mol] | ΔG (change in Gibbs free energy upon binding) [kcal/mol] | ΔH (change in enthalpy upon binding) [kcal/mol] | Compound | Kd [nM]
1 | -8.02 | -6.72 ± 0.05 | -14.74 ± 0.12 | Ac-ANGNAENEENGEQEADNEVD-NH2 [PTMA iso 1] | 
2 | -9.69 | -7.60 ± 0.03 | -17.29 ± 0.06 | Ac-ANGNANEENGEQEADNEVD-NH2 [PTMA iso 2] | 
3 | -10.05 | -9.07 ± 0.03 | -19.12 ± 0.06 | Ac-INVRKRNVESGEEELASKLD-NH2 [PGAM5] | 

Continued, compound first:

Row | Compound | TΔS (entropy term upon binding) [kcal/mol] | ΔG (change in Gibbs free energy upon binding) [kcal/mol] | ΔH (change in enthalpy upon binding) [kcal/mol] | Kd [nM]
4 | CC[C@H](C)[C@H](NC(=O)[C@@H]1CCCN1C(=O)[C@H](CC(C)C)NC(=O)[C@H](Cc1ccccc1)NC(=O)[C@H](CCC(=O)O)NC(=O)CNC(=O)[C@@H](NC(=O)[C@H](CCC(=O)O)NC(=O)[C@H](CCC(=O)O)NC(=O)[C@H](CC(=O)O)NC(=O)[C@H](CC(C)C)NC(=O)[C@H](CCC(N)=O)NC(=O)[C@H](CC(C)C)NC(=O)[C@H](CCC(N)=O)NC(=O)[C@H](C)NC(=O)[C@H](Cc1ccccc1)NC(C)=O)[C@@H](C)O)C(=O)N[C@@H](CCC(N)=O)C(=O)N1CCC[C@H]1C(=O)N[C@@H](C)C(=O)N[C@@H](CCC(N)=O)C(N)=O [NRF2 site 1] | -6.56 | -10.40 ± 0.03 | -16.96 ± 0.05 | 
5 | CSCC[C@H](NC(=O)[C@H](CCC(N)=O)NC(=O)[C@H](CC(C)C)NC(=O)[C@H](CO)NC(=O)[C@H](CCC(N)=O)NC(=O)[C@H](CC(C)C)NC(=O)[C@H](CCC(=O)O)NC(=O)CNC(=O)[C@@H](NC(=O)[C@H](CO)NC(=O)[C@@H]1CCCN1C(=O)[C@H](CC(=O)O)NC(=O)[C@@H](NC(=O)[C@H](CCC(=O)O)NC(=O)[C@H](CCCCN)NC(=O)[C@H](CO)NC(=O)[C@H](CO)NC(=O)[C@H](CC(C)C)NC(C)=O)C(C)C)[C@@H](C)O)C(=O)N1CCC[C@H]1C(=O)N[C@@H](CCC(=O)O)C(N)=O [p62] | -10.34 | -8.04 ± 0.03 | -18.38 ± 0.07 | > 1000
6 | Ac-FAQLQLDPETGEFLPIQPAQ-NH2 [NRF2 site 1 E78P] | -5.64 | -11.12 ± 0.03 | -16.76 ± 0.05 | 
7 | Ac-SLEEPHSPETGEKVVAGEVN-NH2 [WTX] | -9.03 | -9.01 ± 0.04 | -18.04 ± 0.09 | 100 to 200
